This is an account of results in patent publication US7786040B2, “4-cyclopropyl-1,2,3,-thiadiazole compound, agrohorticultural plant disease controlling agent and method of using the same” (Nihon Nohyaku Co., Ltd., priority 2005, dated 2010).

Data set [1] has as its system powdery mildew fungus (Blumeria graminis). Briefly: Test Example 2: controlling effect by seed dressing against wheat powdery mildew, long-lasting effect. It counts as in vivo. Particulars: 0.15% active ingredient based on weight of dry seeds, inoculated 50 days after sowing, investigated 7 days after inoculation. The source says:
(§1) Seeds of wheat (cultivar: chihoku komugi) and a wettable powder prepared according to Formulation Example were placed in a vinyl bag, followed by adding thereto a small volume of water, and they were mixed to conduct seed dressing. On the day after this treatment, the seeds sowed in a plastic pot of 10 cm diameter, and cultivated in a greenhouse. Twenty five days after sowing, the seedlings thus obtained were inoculated with powdery mildew fungus (Blumeria graminis) by sprinkling. Seven days after inoculation, the seedlings were investigated and infection index was estimated according to the criterion shown below, after which the control efficacy (%) was calculated. In this occasion, infection index on the untreated plot was 8.0. As comparative examples, the following compounds described in JP-A-2001-10909 were evaluated. • I: 3′-chloro-4,4′-dimethyl-1,2,3-thiadiazole-5-carboxanilide • II: benzyl 4-isopropyl-1,2,3-thiadiazole-5-carboxylate • III: methyl 4-cyclopropyl-1,2,3-thiadiazole-5-carboxylate • IV: 4-cyclopropyl-1,2,3-thiadiazole-5-carboxylic acid Infection Index • 0: No infection. • 0.5: Lesion area percentage: less than 10% • 1: Lesion area percentage; 10 to less than 20% • 2: Lesion area percentage; 20 to less than 30% • 3: Lesion area percentage; 30 to less than 40% • 4: Lesion area percentage; 40 to less than 50% • 5: Lesion area percentage; 50 to less than 60% • 6: Lesion area percentage; 60 to less than 70% • 7: Lesion area percentage; 70 to less than 80% • 8: Lesion area percentage; 80 to less than 90% • 9: Lesion area percentage; 90 to less than 100% • 10: Lesion area percentage; 100% Control efficacy (%)={1-(infection index on treated plot/infection index on untreated plot)}×100 Rank of Control Efficacy • A: Control efficacy 100-90% • B: Control efficacy 89-80% • C: Control efficacy 79-60% • D: Control efficacy 59-0%
Seeds of wheat (cultivar: Chihoku Komugi) and a wettable powder prepared according to Formulation Example were placed in a vinyl bag, followed by adding thereto a small volume of water, and they were mixed to conduct seed dressing. On the day after this treatment, the seeds sowed in a plastic pot of 10 cm diameter, and cultivated in a greenhouse. Fifty days after sowing, the seedlings thus obtained were inoculated with powdery mildew fungus (Blumeria graminis) by sprinkling. Seven days after inoculation, the seedlings were investigated and infection index was estimated according to the criterion shown below, after which the control efficacy (%) was calculated. In this occasion, infection index on the untreated plot was 8.0. As comparative examples, the above-described compounds I, II, III and IV were evaluated.

Data set [2] concerns wheat (cultivar: Chihoku Komugi). Briefly: Test Example 3: phytotoxicity for wheat by treatment of seeds (safety test on plant). It counts as in vivo. Conditions: wheat seed dressing, 0.15% active ingredient based on weight of dry seeds; 7 and 14 days after sowing. The method, then:
Seeds of wheat (cultivar: Chihoku Komugi) and a wettable powder prepared according to Formulation Example were placed in a vinyl bag, followed by adding thereto a small volume of water, and they were mixed to conduct seed dressing. On the day after this treatment, the seeds sowed in a plastic pot of 10 cm diameter, and cultivated in a greenhouse. Seven days and fourteen days after sowing, phytotoxicity for germination of the seeds and growth at the early stage were evaluated.

Data set [3] concerns powdery mildew fungus (Blumeria graminis). Briefly: Test Example 1: controlling effect by seed dressing against wheat powdery mildew. It counts as in vivo. Particulars: 0.15% active ingredient based on weight of dry seeds, inoculated 25 days after sowing, investigated 7 days after inoculation.
From the text: as §1

What is called melting point is the temperature of the solid-liquid transition. In the case of `O=C(O)c1snnc1C1CC1` [Comparative compound IV, 4-cyclopropyl-1,2,3-thiadiazole-5-carboxylic acid], the melting point lay within 158 to 159 °C. In addition, the “Rank of control efficacy” value in data set [1] is listed as “B (Control efficacy 89-80%)”. Moreover, the “phytotoxicity for germination of the seeds and growth at the early stage” value (“phytotoxicity for germination” for short) in data set [2] was “delay germination and suppressed growth”.
As for `COc1ccc(CNC(=O)c2snnc2C2CC2)cc1OC` [1-166], the “Rank of control efficacy” value in data set [3] is reported as “B or more”. Also, the “phytotoxicity for germination” value in data set [2] was “absolutely no phytotoxicity”.
On to `CC(C)Cc1csc(NC(=O)c2snnc2C2CC2)n1` [1-110], for which the “Rank of control efficacy” value in data set [3] is given as “B or more”. The “phytotoxicity for germination” value in data set [2] is listed as “absolutely no phytotoxicity”.
The like results for `CC(OC(=O)c1snnc1C1CC1)c1ccc(Cl)cc1` (stereo not shown) [1-44] were, in that order, “B or more” and “absolutely no phytotoxicity”.
For the molecule `O=C(O)c1ccccc1NC(=O)c1snnc1C1CC1` [1-98, 2-(4-cyclopropyl-1,2,3-thiadiazol-5-ylcarbonylamino)benzoic acid], the “Rank of control efficacy” value in data set [3] was “B or more”. Further, the “phytotoxicity for germination” value in data set [2] is “absolutely no phytotoxicity”.
The like results for `O=C(OCc1ccc(Cl)cc1)c1snnc1C1CC1` [1-12] were, in that order, “B or more” and “absolutely no phytotoxicity”.
For the molecule `O=C(OCc1cccc(Cl)c1)c1snnc1C1CC1` [1-11], the “Rank of control efficacy” value in data set [3] is listed as “B or more”. The “phytotoxicity for germination” value in data set [2] was “absolutely no phytotoxicity”.
The like results for `CCCCCCCCOC(=O)c1snnc1C1CC1` [1-8] were, in that order, “B or more” and “absolutely no phytotoxicity”.
The like results for `O=C(NS(=O)(=O)c1ccccc1)c1snnc1C1CC1` [1-121] were, in that order, “B or more” and “absolutely no phytotoxicity”.
`COC(=O)c1snnc1C1CC1` [III, methyl 4-cyclopropyl-1,2,3-thiadiazole-5-carboxylate] showed a melting point of 47 °C.
Turning to `O=C(OCc1cc(Cl)cc(Cl)c1)c1snnc1C1CC1` [1-30], the “Rank of control efficacy” value in data set [3] is given as “B or more”. Moreover, the “phytotoxicity for germination” value in data set [2] was “absolutely no phytotoxicity”.
On to `COc1ccc(NC(=O)c2snnc2C2CC2)c(OC)c1` [1-96], for which the “Rank of control efficacy” value in data set [3] is “B or more”. Also, the “phytotoxicity for germination” value in data set [2] is “absolutely no phytotoxicity”.
The like results for `CC(C)(C)c1ccc(CNC(=O)c2snnc2C2CC2)cc1` [1-63] were, in that order, “B or more” and “absolutely no phytotoxicity”.
Take `Cc1ccc(NC(=O)c2snnc2C2CC2)cc1Cl` [1-95, 3′-chloro-4-cyclopropyl-4′-methyl-1,2,3-thiadiazole-5-carboxanilide]: the melting point fell in the range of 150 to 153 °C. In addition, the “Rank of control efficacy” value in data set [3] is given as “B or more”. In addition, the “phytotoxicity for germination” value in data set [2] was “absolutely no phytotoxicity”.
The molecule `N#Cc1ccccc1NC(=O)c1snnc1C1CC1` [1-100, 2′-cyano-4-cyclopropyl-1,2,3-thiadiazole-5-carboxanilide] registered a melting point of 124 °C.
Regarding `COC(=O)c1ccc(COC(=O)c2snnc2C2CC2)cc1` [1-24], the “Rank of control efficacy” value in data set [3] is recorded as “B or more”. The “phytotoxicity for germination” value in data set [2] is on record as “absolutely no phytotoxicity”.
Consider `Cc1nc(-c2cccnc2NC(=O)c2snnc2C2CC2)no1` [1-183], for which the “Rank of control efficacy” value in data set [3] and in data set [1] was “B or more” in each case.
Take `COc1ccc(C(C)OC(=O)c2snnc2C2CC2)cc1` (stereo not shown) [1-50]: the “Rank of control efficacy” value in data set [3] and in data set [1] was “B or more” each time.
For the molecule `O=C(Nc1cccc2nnsc12)c1snnc1C1CC1` [1-184], the “Rank of control efficacy” value in data set [3] and in data set [1] was “B or more” each time.
As for `COc1ccc(OC)c(NC(=O)c2snnc2C2CC2)c1` [1-155], the “Rank of control efficacy” value in data set [3] and in data set [1] was “B or more” throughout.
Take `O=C(NCc1ccccc1)c1snnc1C1CC1` [1-53]: the “Rank of control efficacy” value in data set [3] is “B or more”. Also, the “phytotoxicity for germination” value in data set [2] is recorded as “absolutely no phytotoxicity”.
For `CCOC(=O)c1csc(NC(=O)c2snnc2C2CC2)n1` [1-169], the “Rank of control efficacy” value in data set [3] and in data set [1] was “B or more” in each case.
Turning to `Cc1ccc(NC(=S)c2snnc2C2CC2)cc1Cl` [1-143, 3′-chloro-4-cyclopropyl-4′-methyl-1,2,3-thiadiazole-5-thiocarboxamilide], the “Rank of control efficacy” value in data set [3] and in data set [1] was “B or more” in each case.
